Values after ≈ are worked out from the molar mass of the structure shown.
Key:
[1] = Cytotoxicity against human HuH7 cells assessed as cell viability at 20 uM after 24 hrs by MTS assay; format: cell-based, Huh-7; conditions: read-out: Activity
[2] = Cytotoxicity against human HeLa cells assessed as cell viability at 20 uM after 24 hrs by MTS assay; format: cell-based; conditions: read-out: Activity
[3] = Cytotoxicity against human HuH7 cells assessed as cell viability after 24 hrs by MTS assay; format: cell-based; conditions: Huh-7, 24 h
Mycobacterium kansasii [4] = experiment: Antimycobacterial activity against Mycobacterium kansasii CNCTC My 6509/96 after 21 days by microdilution method; format: functional; conditions: CNCTC My 6509/96, 504 h
[5] = Cytotoxicity against MDCK2-MDR1 cells assessed as cell viability after 24 hrs by MTS assay; format: ADME, cell-based; conditions: Canis lupus familiaris, MDCK-II
[6] = Cytotoxicity against MDCK2-MDR1 cells assessed as cell viability at 20 uM after 48 hrs by MTS assay; format: ADME, cell-based, Canis lupus familiaris, MDCK-II; conditions: dog, read-out: Activity
HeLa [7] = experiment: Cytotoxicity against human HeLa cells assessed as cell viability after 24 hrs by MTS assay; format: cell-based
[8] = Cytotoxicity against human HeLa cells assessed as cell viability at 20 uM after 48 hrs by MTS assay; format: cell-based; conditions: read-out: Activity
[9] = Cytotoxicity against MDCK2-MDR1 cells assessed as cell viability at 20 uM after 24 hrs by MTS assay; format: ADME, cell-based, Canis lupus familiaris, MDCK-II; conditions: dog, read-out: Activity
[10] = Cytotoxicity against MDCK2-MDR1 cells assessed as cell viability after 48 hrs by MTS assay; format: ADME, cell-based; conditions: Canis lupus familiaris, MDCK-II
[11] = Cytotoxicity against human HuH7 cells assessed as cell viability at 20 uM after 48 hrs by MTS assay; format: cell-based, Huh-7; conditions: read-out: Activity
Salmonella typhimurium [12] = experiment: Mutagenic activity in Salmonella typhimurium TA98 assessed as reverse mutation at 30 uM by Ames test; format: toxicity, organism-based; conditions: salmonella enterica subsp. enterica serovar typhimurium
[13] = test system: Mycobacterium tuberculosis; experiment: Antimycobacterial activity against Mycobacterium tuberculosis CNCTC My 331/88 after 14 days by microdilution method; format: functional; conditions: CNCTC My 331/88, 336 h
Mycobacterium kansasii [14] = experiment: Antimycobacterial activity against Mycobacterium kansasii CNCTC My 235/80 after 7 days by microdilution method; format: functional; conditions: CNCTC My 235/80, 168 h
HeLa [15] = experiment: Cytotoxicity against human HeLa cells assessed as cell viability after 48 hrs by MTS assay; format: cell-based
Mycobacterium kansasii [16] = experiment: Antimycobacterial activity against Mycobacterium kansasii CNCTC My 235/80 after 14 days by microdilution method; format: functional; conditions: CNCTC My 235/80, 336 h
[17] = test system: Mycobacterium tuberculosis; experiment: Antimycobacterial activity against Mycobacterium tuberculosis CNCTC My 331/88 after 21 days by microdilution method; format: functional; conditions: CNCTC My 331/88, 504 h
Salmonella typhimurium [18] = experiment: Mutagenic activity in Salmonella typhimurium TA100 assessed as reverse mutation at 30 uM by Ames test; format: toxicity, organism-based; conditions: salmonella enterica subsp. enterica serovar typhimurium
Mycobacterium kansasii [19] = experiment: Antimycobacterial activity against Mycobacterium kansasii CNCTC My 235/80 after 21 days by microdilution method; format: functional; conditions: CNCTC My 235/80, 504 h
Mycobacterium kansasii [20] = experiment: Antimycobacterial activity against Mycobacterium kansasii CNCTC My 6509/96 after 7 days by microdilution method; format: functional; conditions: CNCTC My 6509/96, 168 h
Mycobacterium avium [21] = experiment: Antimycobacterial activity against Mycobacterium avium CNCTC My 330/88 after 14 days by microdilution method; format: functional; conditions: CNCTC My 330/88, 336 h
Mycobacterium kansasii [22] = experiment: Antimycobacterial activity against Mycobacterium kansasii CNCTC My 6509/96 after 14 days by microdilution method; format: functional; conditions: CNCTC My 6509/96, 336 h
Mycobacterium avium [23] = experiment: Antimycobacterial activity against Mycobacterium avium CNCTC My 330/88 after 21 days by microdilution method; format: functional; conditions: CNCTC My 330/88, 504 h
Pichia kudriavzevii = experiment: Antifungal activity against Candida krusei E28 after 24 to 48 hrs by broth microdilution method; format: functional
Candida tropicalis = experiment: Antifungal activity against Candida tropicalis 156 after 24 to 48 hrs by broth microdilution method; format: functional
Pseudomonas aeruginosa = experiment: Antibacterial activity against Pseudomonas aeruginosa ATCC 9027 after 24 to 48 hrs by broth microdilution method; format: functional
Nakaseomyces glabratus = experiment: Antifungal activity against Candida glabrata 20/I after 24 to 48 hrs by broth microdilution method; format: functional
Staphylococcus aureus [24] = experiment: Antibacterial activity against Staphylococcus aureus ATCC 6538 after 24 to 48 hrs by broth microdilution method; format: functional
Trichosporon asahii = experiment: Antifungal activity against Trichosporon asahii 1188 after 24 to 48 hrs by broth microdilution method; format: functional
Staphylococcus aureus [25] = experiment: Antibacterial activity against methicillin-resistant Staphylococcus aureus H 5996/08 after 24 to 48 hrs by broth microdilution method; format: functional
Enterococcus faecalis = experiment: Antibacterial activity against Enterococcus faecalis J 14365/08 after 24 to 48 hrs by broth microdilution method; format: functional
Candida albicans = experiment: Antifungal activity against Candida albicans ATCC 44859 after 24 to 48 hrs by broth microdilution method; format: functional
Lichtheimia corymbifera = experiment: Antifungal activity against Absidia corymbifera 272 after 24 to 48 hrs by broth microdilution method; format: functional
[26] = test system: Staphylococcus epidermidis; experiment: Antibacterial activity against Staphylococcus epidermidis H 6966/08 after 24 to 48 hrs by broth microdilution method; format: functional
Escherichia coli = experiment: Antibacterial activity against Escherichia coli ATCC 8739 after 24 to 48 hrs by broth microdilution method; format: functional
Klebsiella pneumoniae [27] = experiment: Antibacterial activity against ESBL producing Klebsiella pneumoniae J 14368/08 after 24 to 48 hrs by broth microdilution method; format: functional
Aspergillus fumigatus = experiment: Antifungal activity against Aspergillus fumigatus 231 after 24 to 48 hrs by broth microdilution method; format: functional
Klebsiella pneumoniae [28] = experiment: Antibacterial activity against Klebsiella pneumoniae D 11750/08 after 24 to 48 hrs by broth microdilution method; format: functional
[29] = test system: Trichophyton mentagrophytes; experiment: Antifungal activity against Trichophyton mentagrophytes 445 after 72 to 120 hrs by broth microdilution method; format: functional

| Structure (SMILES) | viability at 24 h, 20 µM [1] | viability at 24 h, 20 µM [2] | IC50 [3] | MIC99 (Mycobacterium kansasii [4]) | IC50 [5] | viability at 48 h, 20 µM [6] | IC50 (HeLa [7]) | viability at 48 h, 20 µM [8] | viability at 24 h, 20 µM [9] | IC50 [10] | viability at 48 h, 20 µM [11] | Activity (Salmonella typhimurium [12]) | MIC99 [13] | MIC99 (Mycobacterium kansasii [14]) | MIC99 (Mycobacterium kansasii [16]) | MIC99 [17] | MIC99 (Mycobacterium kansasii [19]) | MIC99 (Mycobacterium kansasii [20]) | MIC99 (Mycobacterium avium [21]) | MIC99 (Mycobacterium avium [23]) | also measured |
| --- | --- | --- | --- | --- | --- | --- | --- | --- | --- | --- | --- | --- | --- | --- | --- | --- | --- | --- | --- | --- | --- |
| COc1ccc(-c2nnc(SCc3cc([N+](=O)[O-])cc([N+](=O)[O-])c3)o2)cc1 | 91.6% | 83.9% | > 20 µM | 0.5 µM (≈ 0.194 µg/mL) | > 20 µM | 14.5% | > 20 µM | 37.3% | 80.6% | 10.6 µM | 34.1% | – | – | – | – | – | – | – | – | – | – |
| O=[N+]([O-])c1ccc2c(c1)Cc1ccccc1-2 [2-NITROFLUORENE] | – | – | – | – | – | – | – | – | – | – | – | Toxic | – | – | – | – | – | – | – | – | – |
| O=[N+]([O-])c1cc(CSc2nnc(-c3ccccc3)s2)cc([N+](=O)[O-])c1 | 84.3% | 78.5% | > 20 µM | 1 µM (≈ 0.374 µg/mL) | > 20 µM | 7.3% | > 20 µM | 15.9% | 97.8% | 3.1 µM | 36.3% | Non-toxic | 0.06 µM (≈ 0.0225 µg/mL) | 0.25 µM (≈ 0.0936 µg/mL) | 0.5 µM (≈ 0.187 µg/mL) | 0.125 µM (≈ 0.0468 µg/mL) | 1 µM (≈ 0.374 µg/mL) | 0.25 µM (≈ 0.0936 µg/mL) | 8 µM (≈ 3 µg/mL) | 16 µM (≈ 5.99 µg/mL) | IC50 (HeLa [15]): 2.4 µM; Activity (Salmonella typhimurium [18]): Non-toxic; MIC99 (Mycobacterium kansasii [22]): 0.5 µM (≈ 0.187 µg/mL) |
| O=[N+]([O-])c1cc(CSc2nnc(-c3ccc(Cl)cc3)o2)cc([N+](=O)[O-])c1 | – | – | – | 0.5 µM (≈ 0.196 µg/mL) | – | – | – | – | – | – | – | – | – | – | – | – | – | – | > 125 µM | > 125 µM | MIC80 (Pichia kudriavzevii): > 125 µM; MIC80 (Candida tropicalis): > 125 µM; MIC95 (Pseudomonas aeruginosa): > 125 µM; MIC80 (Nakaseomyces glabratus): > 125 µM; MIC95 (Staphylococcus aureus [24]): > 125 µM; MIC80 (Trichosporon asahii): > 125 µM; MIC95 (Staphylococcus aureus [25]): > 125 µM; MIC95 (Enterococcus faecalis): > 125 µM; MIC80 (Candida albicans): > 125 µM; MIC50 (Lichtheimia corymbifera): > 125 µM; MIC95 [26]: > 125 µM; MIC95 (Escherichia coli): > 125 µM; MIC95 (Klebsiella pneumoniae [27]): > 125 µM; MIC50 (Aspergillus fumigatus): > 125 µM; MIC95 (Klebsiella pneumoniae [28]): > 125 µM; MIC50 [29]: > 125 µM |
| O=[N+]([O-])c1ccc(CSc2nnc(-c3ccc(Cl)cc3)s2)c([N+](=O)[O-])c1 | – | – | – | 4 µM (≈ 1.64 µg/mL) | – | – | – | – | – | – | – | – | 2 µM (≈ 0.818 µg/mL) | 1 µM (≈ 0.409 µg/mL) | 2 µM (≈ 0.818 µg/mL) | 4 µM (≈ 1.64 µg/mL) | 4 µM (≈ 1.64 µg/mL) | 1 µM (≈ 0.409 µg/mL) | 4 µM (≈ 1.64 µg/mL) | 8 µM (≈ 3.27 µg/mL) | MIC80 (Pichia kudriavzevii): > 125 µM; MIC80 (Candida tropicalis): > 125 µM; MIC95 (Pseudomonas aeruginosa): > 125 µM; MIC80 (Nakaseomyces glabratus): > 125 µM; MIC95 (Staphylococcus aureus [24]): > 125 µM; MIC80 (Trichosporon asahii): > 125 µM; MIC95 (Staphylococcus aureus [25]): > 125 µM; MIC95 (Enterococcus faecalis): > 125 µM; MIC80 (Candida albicans): > 125 µM; MIC50 (Lichtheimia corymbifera): > 125 µM; MIC95 [26]: > 125 µM; MIC95 (Escherichia coli): > 125 µM; MIC95 (Klebsiella pneumoniae [27]): > 125 µM; MIC50 (Aspergillus fumigatus): > 125 µM; MIC95 (Klebsiella pneumoniae [28]): > 125 µM; MIC99 (Mycobacterium kansasii [22]): 2 µM (≈ 0.818 µg/mL); MIC50 [29]: > 125 µM |

Source: ChEMBL document CHEMBL3797190, “Development of 3,5-Dinitrobenzylsulfanyl-1,3,4-oxadiazoles and Thiadiazoles as Selective Antitubercular Agents Active Against Replicating and Nonreplicating Mycobacterium tuberculosis” (J Med Chem, 2016)
